# Key:
# [1] = test system: umbilical vein endothelial (HUVE) cells; conditions: cited from earlier work
# peroxyl radical = experiment: Cell-based Antioxidant Protection (CAP-e) assay; conditions: per gram
# From the text: (§1) Dihydroquercetin is a:far more powerful antioxidant than vitamins A, C and E, as indicated by its comparative USDA ranking of the Oxygen Radical Absorbance Capacity (ORAC) and supported by other additional studies such as Cell-based Antioxidant Protection (CAP-e) assay against peroxyl radical, which is used to test whether natural products contain antioxidants capable of entering into and protecting live cells from oxidative damage.
# (§2) The majority of HAT-based assays apply a competitive reaction scheme, in which antioxidant and substrate compete for thermally generated peroxyl radicals through the decomposition of azo compounds. ORAC and CAP-e can also be applied as an assays for the inhibition of induced low-density lipoprotein oxidation and other oxygen radical absorbances. […]
# (§3) Among all the HAT-based assays, ORAC and CAP-e adopted an AUC (area under curve) technique to quantify antioxidant capacity. […]
# (§4) Therefore, the ORAC and CAP-e assays has been broadly applied in academics and the food and supplement industry as the method of choice to quantify antioxidant capacity. […] The ORAChydro value of our dihydroquercetin has been measured at is 3,890 micromole of Trolox equivalent per […] capsule or 28,000 micromole Trolox equivalent per gram. The CAP-e value of our dihydroquercetin has been measured at is 9.9 CAP-e units per gram.
# [2] = test system: 8-hydroxy-2′-deoxyguanosine; conditions: Fenton reaction catalyzed by copper; cited from earlier work
# [3] = test system: human lung embryonic fibroblasts (TIG-1); conditions: TIG-1 cells; cited from earlier work
# [4] = ORAChydro (Oxygen Radical Absorbance Capacity) assay; assay type: physicochemical
# From the text: as §1, §2, §3, §4
# bacterial mutagenicity = bacterial mutagenicity tests, cited from earlier work
# [5] = clinical feedback, usually females; cited from earlier work
compound,measurement,setting,value
O=C1c2c(O)cc(O)cc2O[C@H](c2ccc(O)c(O)c2)[C@H]1O [Dihydroquercetin],50% lethal concentration,[1],> 200 µmol
same,CAP-e value,peroxyl radical,9.9 CAP-e units per gram
same,pro-oxidant activity,[2],did not present pro-oxidant activity
same,50% lethal concentration,[3],> 300 µmol
same,ORAChydro value,[4]; per 412.3 mg capsule,"3,890 micromole of Trolox equivalent per 412.3 mg capsule"
same,ORAChydro value,[4]; per gram,"28,000 micromole Trolox equivalent per gram"
same,times less mutagenic than quercetin,bacterial mutagenicity; relative to quercetin,400 times
same,minimum mutagenic dose,bacterial mutagenicity,1626 nmol
"O=c1c(O)c(-c2ccc(O)c(O)c2)oc2cc(O)cc(O)c12 [quercetin, reference compound]",minimum mutagenic dose,bacterial mutagenicity,4 nml
Larch Arabinogalactan,"occasional reaction of bloating and flatulence, share of individuals",[5],less than three percent
catechin [reference compound],pro-oxidant activity,[2],did not present pro-oxidant activity

# From patent publication US20130216585A1, “COMPOSITION AND METHODS FOR QUENCHING FREE RADICALS AND MODULATING INFLAMMATION” (FLAVITPURE, INC., priority 2012, published 2013)
